For this test, the system named is MDCK cells. As to the kind of experiment: HGF-induced epithelial-mesenchymal transition / migration of MDCK cells on transwell filters (crystal violet densitometry). To be noted: then HGF, percentage like untreated controls (unstimulated cells = maximal effect, HGF only = nil); for Assay Value: 10 μM compound, 24 hours; for inhibition at 10 µM: Canis lupus familiaris, MDCK, 24 h. Type of test: cell-based. The procedure:
MDCK cells were seeded at confluency into the wells of a transwell filter in DMEM with 10% fetal bovine serum. Cells were cultured for 24 hours. Test compounds, dissolved in DMSO, were added to each test well to a 10 μM final concentration, and then hepatocyte growth factor (HGF) was then added. The MDCK cells were cultured for 24 hours. Concurrently, controls treated with and without HGF and with no test compounds were also prepared.
After post-HGF addition culturing, transwell filters were prepared by repeated washing using ice cold PBS. The cells were then fixed with paraformaldehyde (3.7%) on ice for 15 minutes to the filters. After fixation, the transwell filters were washed repeatedly with PBS followed by staining with crystal violet for 15 minutes. The transwell filters were washed again with distilled water.
The upper surface of the transwell filters were swabbed using a cotton-tipped probe. The filters were photographed using a gel documentation system. Densitometry measurements were made on the test samples and compared with control samples.

Structures are written as SMILES.

As for `COc1cc2c(cc1OC)C(c1ccc(Cl)cc1)CC(=O)N2` (stereo not shown) [Compound 55], the “Assay Value” (Table 2) was <5%.
Usually inhibition stands for how much of the control response was suppressed. The low end stands for a response near the control, the high end for a response far below the control. `Cc1cc(C)cc(NS(=O)(=O)c2cccc([N+](=O)[O-])c2)c1` [Compound B-37] yielded an inhibition at 10 µM (Table 5, 10 μM compound) of 79.9%.
For `COc1cc(Br)c(C2CC(=O)Nc3cc(OC)c(OC)cc32)cc1OC` (stereo not shown) [Compound 48], the “Assay Value” (Table 2) was <5%.
Same read-out and setting: to `O=C1CC(c2ccccc2C(F)(F)F)c2cc3c(cc2N1)CCC3` (stereo not shown) [Compound 94] belongs <5%; to `O=C1CC(c2cccc(OCc3ccccc3)c2)c2cc3c(cc2N1)OCCO3` (stereo not shown) [Compound 58], <5%.
The same measure, in the same setting: the value for `O=C1CC(c2ccc([N+](=O)[O-])cc2)c2cc3c(cc2N1)CCC3` (stereo not shown) [Compound 98] was <5%.
`O=C(Nc1cccc(C(=O)c2ccccc2)c1)c1ccc(-c2ccccc2)cc1` [Compound B-18]: the inhibition at 10 µM (Table 5, 10 μM compound) was 93.8%.
As to `NC(=O)c1ccccc1/N=C/c1ccc(Cl)cc1Cl` [Compound A-18], the inhibition at 10 µM (Table 3, 10 μM compound) is < 5%.
As to `COc1cc2c(cc1OC)C(c1ccc(Cl)cc1Cl)CC(=O)N2` (stereo not shown) [Compound 49], the “Assay Value” (Table 2) is <5%.
Still for that read-out and setting: to `Cc1ccc(C)c(C2CC(=O)Nc3cc4c(cc32)OCO4)c1` (stereo not shown) [Compound 83] belongs <5%.
Molecule `Cc1ccc(COC(=O)c2[nH]c3c(c2C)C(=O)CC(c2cccs2)C3)cc1` (stereo not shown) [Compound C-6] came in with an inhibition at 10 µM (Table 6, 10 μM compound) of 48.4%.
Turning to `COc1cc(CNc2ccc(C)c(Cl)c2)cc(Cl)c1OC` [Compound A-26], the “Assay Value” (Table 3) is given as <5%.
Take `Cc1cc(NC(=O)c2cccc([N+](=O)[O-])c2)ccc1O` [Compound B-14]: where the note is “Table 5”, the “Assay Value” is 34.6%.
`COc1cc(C(=O)Nc2ccc(Nc3ccccc3)cc2)cc(OC)c1OC` [Compound B-27]: the inhibition at 10 µM (Table 5, 10 μM compound) came out at 13.7%.
In the case of `CCOc1ccccc1C1CC(=O)Nc2cc(OC)c(OC)cc21` (stereo not shown) [Compound 61], for the setting “Table 2”, the “Assay Value” is listed as <5%.
On the same count and under the same terms, to `COc1ccccc1C1CC(=O)Nc2cc3c(cc21)OCCO3` (stereo not shown) [Compound 38] belongs <5%; to `O=C1CC(c2cc(F)cc(F)c2)c2cc3c(cc2N1)OCO3` (stereo not shown) [Compound 77], <5%.
`CCOC(=O)c1[nH]c2c(c1C)C(=O)CC(c1ccco1)C2` (stereo not shown) [Compound C-4] returned an inhibition at 10 µM (Table 6, 10 μM compound) of 62.2%.
The molecule `NC(=O)c1ccccc1/N=C/c1cccc(Cl)c1Cl` [Compound A-1] registered an inhibition at 10 µM (Table 3, 10 μM compound) of 94%.
Regarding `Cc1ccc(C)c(C2CC(=O)Nc3cc4c(cc32)OCCO4)c1` (stereo not shown) [Compound 14], the “Assay Value” (Table 1) is reported as 8.8%.
`CCOc1ccc(C(=O)Nc2cccc(C)n2)cc1[N+](=O)[O-]` [Compound B-9] gave an inhibition at 10 µM (Table 4, 10 μM compound) of 34.6%.
Regarding `COc1cc2c(cc1OC)C(c1cc(OC)c(OC)cc1OC)CC(=O)N2` (stereo not shown) [Compound 65], the “Assay Value” (Table 2) is given as <5%.
For the molecule `O=C1CC(c2ccc(Cl)cc2Cl)c2cc3c(cc2N1)CCC3` (stereo not shown) [Compound 97], the “Assay Value” (Table 2) is recorded as <5%.
On to `O=C(Nc1cccc(Cl)c1)c1ccc(-c2ccccc2)cc1` [Compound B-19], for which the inhibition at 10 µM (Table 5, 10 μM compound) stood at 93.2%.
In the case of `COc1cccc(/C=N/c2ccccc2C(N)=O)c1O` [Compound A-4], the inhibition at 10 µM (Table 3, 10 μM compound) was 20.9%.
For the molecule `Cc1c(C(=O)OC2CCCC2C)[nH]c2c1C(=O)CC(c1cccs1)C2` (stereo not shown) [Compound C-18], under “Table 6, 10 μM compound”, the inhibition at 10 µM turned out to be 92.2%.
`CCC(=O)Nc1ccc(NC(=O)c2cc(OC)c(OC)c(OC)c2)cc1` [Compound B-23]: under “Table 5, 10 μM compound”, the inhibition at 10 µM came out at 29.4%.
With `O=C1CC(c2ccc(F)c(Br)c2)c2cc3c(cc2N1)OCCO3` (stereo not shown) [Compound 21], the “Assay Value” (Table 1) was found to be 11.2%.
Turning to `CC(C)Oc1ccccc1C1CC(=O)Nc2cc3c(cc21)OCCO3` (stereo not shown) [Compound 50], the “Assay Value” (Table 2) is on record as <5%.
For the molecule `COc1cc(C(=O)Nc2ccc(N3CCCC3)cc2)cc(OC)c1OC` [Compound B-25], testing at 10 µM (Table 5, 10 μM compound) gave an inhibition of 94.9%.
Consider `COc1ccc(C2CC(=O)Nc3cc4c(cc32)OCCO4)cc1` (stereo not shown) [Compound 24], for which the “Assay Value” (Table 1) was 100%.
As to `COc1cc(C(=O)Nc2ccc(N(C)C)cc2)cc(OC)c1OC` [Compound B-22], the inhibition at 10 µM (Table 5, 10 μM compound) is > 5%.
Turning to `O=C1CC(c2cccc(O)c2)c2cc3c(cc2N1)OCCO3` (stereo not shown) [Compound 19], the “Assay Value” (Table 1) was 7.8%.
For the molecule `Cc1cccc(C2CC(=O)Nc3cc4c(cc32)OCO4)c1` (stereo not shown) [Compound 85], the “Assay Value” (Table 2) is <5%.
Consider `O=C1CC(c2cccc(Cl)c2)c2cc3c(cc2N1)CCC3` (stereo not shown) [Compound 96], for which the “Assay Value” (Table 2) is <5%.
Regarding `CSc1ccc(C2CC(=O)Nc3cc4c(cc32)OCCO4)cc1` (stereo not shown) [Compound 68], the “Assay Value” (Table 2) is reported as <5%.
As to `COc1cc2c(cc1OC)C(c1cccc(Cl)c1)CC(=O)N2` (stereo not shown) [Compound 41], the “Assay Value” (Table 2) is given as <5%.

(Values after patent US20130158035A1, “[…] COMPOUNDS” (Brigham Young University, priority 2010, published 2013).)
